Laboratory results reported in PMC6628920 (Chemico-biological interactions, 2018).
One block for each compound: values may come before it.

Experiments:
MRP1 = MRP1 (Homo sapiens, UniProt P33527); assay type: in vitro ADME
MRP4 = target: T1, MRP4 (Homo sapiens, UniProt O15439); assay type: in vitro ADME
T1 sequence (O15439 1-1325): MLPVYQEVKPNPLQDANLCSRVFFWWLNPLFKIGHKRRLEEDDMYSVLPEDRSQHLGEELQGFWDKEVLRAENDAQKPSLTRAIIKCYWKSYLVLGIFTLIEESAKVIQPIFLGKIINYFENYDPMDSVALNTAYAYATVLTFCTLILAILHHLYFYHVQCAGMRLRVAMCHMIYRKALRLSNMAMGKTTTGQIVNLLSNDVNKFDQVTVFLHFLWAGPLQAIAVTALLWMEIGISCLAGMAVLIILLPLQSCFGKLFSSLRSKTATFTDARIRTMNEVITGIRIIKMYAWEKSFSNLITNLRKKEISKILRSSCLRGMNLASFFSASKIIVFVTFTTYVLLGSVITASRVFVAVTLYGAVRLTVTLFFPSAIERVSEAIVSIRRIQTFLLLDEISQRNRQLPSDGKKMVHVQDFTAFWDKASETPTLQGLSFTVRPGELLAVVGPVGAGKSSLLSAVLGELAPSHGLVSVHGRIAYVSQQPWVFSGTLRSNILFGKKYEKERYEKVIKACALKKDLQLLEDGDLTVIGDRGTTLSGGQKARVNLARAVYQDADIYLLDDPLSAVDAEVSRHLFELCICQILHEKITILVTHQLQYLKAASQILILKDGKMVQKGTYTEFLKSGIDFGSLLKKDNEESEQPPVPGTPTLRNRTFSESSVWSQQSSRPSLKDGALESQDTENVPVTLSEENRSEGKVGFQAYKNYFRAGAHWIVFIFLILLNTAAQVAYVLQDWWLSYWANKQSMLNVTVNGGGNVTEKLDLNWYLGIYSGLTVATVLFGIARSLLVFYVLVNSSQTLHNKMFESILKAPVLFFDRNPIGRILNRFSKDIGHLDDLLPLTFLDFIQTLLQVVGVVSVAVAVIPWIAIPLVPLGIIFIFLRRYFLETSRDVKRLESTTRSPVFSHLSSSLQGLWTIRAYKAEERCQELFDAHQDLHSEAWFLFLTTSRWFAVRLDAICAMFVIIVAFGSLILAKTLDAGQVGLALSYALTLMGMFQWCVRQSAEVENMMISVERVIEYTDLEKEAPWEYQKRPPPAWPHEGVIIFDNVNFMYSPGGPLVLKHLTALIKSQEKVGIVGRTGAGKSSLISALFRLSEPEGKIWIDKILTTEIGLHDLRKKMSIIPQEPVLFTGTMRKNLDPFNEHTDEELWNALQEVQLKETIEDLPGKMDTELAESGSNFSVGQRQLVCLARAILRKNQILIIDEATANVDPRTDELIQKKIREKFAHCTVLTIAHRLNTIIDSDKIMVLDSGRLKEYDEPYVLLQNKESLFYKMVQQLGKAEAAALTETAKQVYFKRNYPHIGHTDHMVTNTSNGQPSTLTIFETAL

recombinant UGT1A1 [1] = target: T2, recombinant UGT1A1 (Homo sapiens, UniProt P22309); assay: Chemical inhibition of cycloicaritin-3-O-glucuronidation by recombinant UGT1A1; assay type: biochemical; conditions: cycloicaritin 8 μM
T2 sequence (P22309 26-533): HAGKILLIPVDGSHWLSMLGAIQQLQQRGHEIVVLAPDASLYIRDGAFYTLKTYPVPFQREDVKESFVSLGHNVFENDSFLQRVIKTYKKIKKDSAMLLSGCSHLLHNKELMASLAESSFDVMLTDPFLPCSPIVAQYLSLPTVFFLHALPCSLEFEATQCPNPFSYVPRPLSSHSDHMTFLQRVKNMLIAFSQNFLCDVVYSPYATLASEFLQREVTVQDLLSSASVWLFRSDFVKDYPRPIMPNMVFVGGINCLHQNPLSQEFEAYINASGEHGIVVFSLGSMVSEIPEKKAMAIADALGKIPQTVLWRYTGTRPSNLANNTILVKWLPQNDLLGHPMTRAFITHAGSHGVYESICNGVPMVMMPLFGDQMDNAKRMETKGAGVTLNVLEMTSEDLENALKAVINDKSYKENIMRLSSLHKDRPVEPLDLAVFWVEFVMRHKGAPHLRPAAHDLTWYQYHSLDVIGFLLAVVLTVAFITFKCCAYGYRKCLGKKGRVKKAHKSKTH

HeLa1A1 cell lysate [2] = target: T3, HeLa1A1 cell lysate (Homo sapiens, UniProt P22309); assay: Chemical inhibition of cycloicaritin-3-O-glucuronidation by HeLa1A1 cell lysate; assay type: biochemical; conditions: cycloicaritin 8 μM
T3 sequence (P22309 26-533): T2 sequence (P22309 26-533)

MRPs = assay: Effects of MRPs inhibitors on excretion of CICT-3-G in HeLa1A1 cells; assay type: cell-based, human; conditions: inhibitor 0.05 and 0.2 μM, cycloicaritin 8 μM
recombinant UGT1A1 [3] = target: T2, recombinant UGT1A1; assay: Kinetics of cycloicaritin-3-O-glucuronidation by recombinant UGT1A1; assay type: in vitro ADME; conditions: Hill equation
HeLa1A1 cell lysate [4] = target: T3, HeLa1A1 cell lysate; assay: Kinetics of cycloicaritin-3-O-glucuronidation by HeLa1A1 cell lysate; assay type: in vitro ADME; conditions: Hill equation
[5] = Metabolite formation from cycloicaritin by wild-type HeLa cell lysate; assay type: in vitro ADME, human; conditions: cycloicaritin 8 μM, 2 h
[6] = cited from earlier work
[7] = cited from earlier work; remark: listed apart in the source

Sequence of MRP1 (P33527 whole entry): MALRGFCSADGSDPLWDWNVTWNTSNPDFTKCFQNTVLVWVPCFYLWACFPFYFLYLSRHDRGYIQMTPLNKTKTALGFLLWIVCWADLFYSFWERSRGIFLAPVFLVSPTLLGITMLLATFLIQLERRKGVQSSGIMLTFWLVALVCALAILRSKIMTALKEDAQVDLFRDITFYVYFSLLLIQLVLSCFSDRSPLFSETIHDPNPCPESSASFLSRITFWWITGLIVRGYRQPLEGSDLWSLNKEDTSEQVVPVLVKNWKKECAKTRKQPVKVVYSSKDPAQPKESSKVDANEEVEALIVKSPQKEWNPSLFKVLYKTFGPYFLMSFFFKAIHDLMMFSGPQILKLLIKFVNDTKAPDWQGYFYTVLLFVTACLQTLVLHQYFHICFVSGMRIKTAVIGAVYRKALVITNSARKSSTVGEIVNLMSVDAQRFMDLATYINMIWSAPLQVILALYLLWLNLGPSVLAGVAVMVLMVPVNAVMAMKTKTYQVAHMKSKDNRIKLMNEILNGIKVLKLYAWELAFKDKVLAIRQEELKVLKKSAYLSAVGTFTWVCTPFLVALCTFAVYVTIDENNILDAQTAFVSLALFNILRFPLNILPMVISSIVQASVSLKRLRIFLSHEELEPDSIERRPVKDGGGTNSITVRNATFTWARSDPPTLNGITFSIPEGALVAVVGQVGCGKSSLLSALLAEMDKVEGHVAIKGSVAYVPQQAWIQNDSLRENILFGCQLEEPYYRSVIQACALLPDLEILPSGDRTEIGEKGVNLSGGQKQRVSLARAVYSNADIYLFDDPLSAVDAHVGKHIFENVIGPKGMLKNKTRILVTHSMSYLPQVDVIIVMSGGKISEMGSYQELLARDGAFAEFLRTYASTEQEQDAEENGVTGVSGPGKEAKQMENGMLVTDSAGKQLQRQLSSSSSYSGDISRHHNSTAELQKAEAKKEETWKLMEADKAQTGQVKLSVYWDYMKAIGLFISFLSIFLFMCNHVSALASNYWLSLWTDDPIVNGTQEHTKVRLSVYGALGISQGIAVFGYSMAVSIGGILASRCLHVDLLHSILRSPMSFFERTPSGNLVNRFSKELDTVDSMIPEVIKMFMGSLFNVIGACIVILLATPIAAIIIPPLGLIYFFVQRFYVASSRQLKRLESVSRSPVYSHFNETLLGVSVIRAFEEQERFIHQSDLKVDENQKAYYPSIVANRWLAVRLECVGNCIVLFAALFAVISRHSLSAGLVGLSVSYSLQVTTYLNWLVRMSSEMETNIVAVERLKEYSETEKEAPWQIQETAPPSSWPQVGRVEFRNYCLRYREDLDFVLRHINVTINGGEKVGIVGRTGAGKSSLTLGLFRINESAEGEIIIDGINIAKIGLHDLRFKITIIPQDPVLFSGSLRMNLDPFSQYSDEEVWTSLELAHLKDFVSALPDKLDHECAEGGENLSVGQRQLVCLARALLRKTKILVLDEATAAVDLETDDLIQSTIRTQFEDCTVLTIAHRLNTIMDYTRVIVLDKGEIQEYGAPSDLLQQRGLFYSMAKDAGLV

decrease of the efflux clearance of CICT-3-G (MRP1): 52.0% | decrease in the efflux clearance of CICT-3-G (MRP4): 28.7%
SMILES: COc1ccc(-c2oc3c4c(cc(O)c3c(=O)c2O[C@@H]2O[C@H](C(=O)O)[C@@H](O)[C@H](O)[C@H]2O)OC(C)(C)CC4)cc1 [CICT-3-G, cycloicaritin-3-O-glucuronide]

SMILES: COc1ccc2c3c([nH]c2c1)[C@H](CC(C)C)N1C(=O)[C@H](CCC(=O)OC(C)(C)C)NC(=O)[C@@H]1C3 [Ko143]
remaining cycloicaritin-3-O-glucuronidation activity, % of the control values (recombinant UGT1A1 [1]; inhibitor 20 μM): 12.5% | remaining cycloicaritin-3-O-glucuronidation activity, % of the control values (HeLa1A1 cell lysate [2]; inhibitor 20 μM): 8.8%

effect on cycloicaritin-3-O-glucuronidation activity (recombinant UGT1A1 [1]; inhibitor 0.05 and 0.2 μM): did not alter | effect on cycloicaritin-3-O-glucuronidation activity (HeLa1A1 cell lysate [2]; inhibitor 0.05 and 0.2 μM): did not alter
SMILES: CCCCC/C=C\C\C=C/C=C/C=C/[C@@H](SC[C@H](NC(=O)CC[C@H](N)C(=O)O)C(=O)NCC(=O)O)[C@@H](O)CCCC(=O)O [LTC4, leukotriene C4]
effect on CLapp value of CICT-3-G (MRPs): no significant changes | effect on fmet value of CICT-3-G (MRPs): no significant changes | effect on the intracellular level of CICT-3-G (MRPs): did not alter | effect on the rate of efflux excretion of CICT-3-G (MRPs): did not alter

SMILES: COc1ccc(-c2oc3c4c(cc(O)c3c(=O)c2O)OC(C)(C)CC4)cc1 [cycloicaritin, Cycloicaritin]
CLmax of cycloicaritin-3-O-glucuronidation (recombinant UGT1A1 [3]): 190 µL/min/mg | S50 of cycloicaritin-3-O-glucuronidation (recombinant UGT1A1 [3]): 1.43 µM | n (Hill coefficient) of cycloicaritin-3-O-glucuronidation (recombinant UGT1A1 [3]): 1.67 µM | Vmax of cycloicaritin-3-O-glucuronidation (recombinant UGT1A1 [3]; cycloicaritin 0.1-10 μM): 0.54 nmol/min/mg | CLmax of cycloicaritin-3-O-glucuronidation (HeLa1A1 cell lysate [4]): 17 µL/min/mg | S50 of cycloicaritin-3-O-glucuronidation (HeLa1A1 cell lysate [4]): 1.19 µM | n (Hill coefficient) of cycloicaritin-3-O-glucuronidation (HeLa1A1 cell lysate [4]): 1.71 µM | Vmax of cycloicaritin-3-O-glucuronidation (HeLa1A1 cell lysate [4]; cycloicaritin 0.1-10 μM): 0.04 nmol/min/mg | metabolites detected after incubation with cell lysate [5]: no metabolites were detected

SMILES: COc1ccc(-c2oc3c(CC=C(C)C)c(O)cc(O)c3c(=O)c2O)cc1 [icaritin]
CLint of glucuronidation in human liver [6]: > 350 µL/min/mg | CLint of glucuronidation in human intestine [7]: > 180 µL/min/mg

SMILES: COc1ccc(-c2oc3c(CCC(C)(C)O)c(O)cc(O)c3c(=O)c2O)cc1 [wushanicaritin]
CLint of glucuronidation in human liver [6]: > 350 µL/min/mg | CLint of glucuronidation in human intestine [7]: > 180 µL/min/mg
